Source: patent US4912227A, “1,2,8,8A-tetrahydrocyclopropa(c)pyrrolo(3,2-e)-indol-4-(5H)-ones and related compounds” (The Upjohn Company, priority 1985, dated 1990)
≈ marks a conversion by molar mass, not a printed value.

Legend:
murine L1210 tumor cells = assay: cytotoxic activity against murine L1210 tumor cells in suspension (3-day cell growth); assay type: cell-based; details: for IC50 / IC90: Mus musculus, 72 h; for IC50: read-out: L-1210 (3-Day Cell Growth) ID50; for IC90: read-out: L-1210 (3-Day Cell Growth) ID90
Description: Many of the compounds of the subject invention have useful cytotoxic activity against murine L1210 tumor cells in suspension, which is a standard model for such tests before the compounds are tested in humans. […] Following is a table showing the results of testing various compounds against L1210 in suspension using standard, well-known procedures. The compounds are identified by an internal designation called "U-" number. The structural identify of the "U-" numbered compounds is shown in Chart I.

Bacillus subtilis = assay: antimicrobial activity
Klebsiella pneumonia = assay: antimicrobial activity
Sarcina lutea = assay: antimicrobial activity
Escherichia coli = assay: antimicrobial activity
Proteus vulgaris = assay: antimicrobial activity
Staphylococcus aureus = assay: antimicrobial activity
[1] = system: Salmonella schottmeulerri; assay: antimicrobial activity
Mycobacterium avium = assay: antimicrobial activity
[2] = system: Saccharomyces pastorianus; assay: antimicrobial activity
Penicillium oxalicum = assay: antimicrobial activity
P388 leukemia = assay: antitumor activity in P388 leukemic mice, intraperitoneal; assay type: in vivo; details: for ILS at 0.1 mg/kg: at 0.10 mg./kg.
Description: These murine test systems are predictive for clinically useful human antitumor agents (see, for example, A. Geldin, J. M. Vendetti, J. S. MacDonald, F. M. Muggia, J. E. Henney and V. T. DeVita, European J. Cancer, Vol. 17, pp. 129-142, 1981; J. M. Vendetti, Cancer Treatment Reports, Vol. 67, pp. 767-772, 1983; and J. M. Vendetti, R. A. Wesley, and J. Plowman, Advances in Pharmacology and Chemotherapy, Vol. 20, pp. 1-20, 1984), and it is therefore presumed that the compounds of the subject invention will be useful in the control and treatment of cancer in humans when given, for example, intravenously in doses of 0.001 to about 10 mg. per kg. of body weight per day, the exact dose depending on the age, weight and condition of the patient, and on the frequency of administration. Following is a table showing the results of testing various compounds intraperitoneally against P388 leukemic mice using standard well-known procedures (In Vivo cancer, Models, NIH Publication No. 84-2635, 1984). The structural identify of the "U-" numbered compounds is shown in Chart I. In the table %ILS refers to percent increase in life span of treated animals over controls.

B16 melanoma = B16 melanoma implanted subcutaneously in mice, single intravenous dose; assay type: in vivo
Description: (§1) These characteristics are advantageous for antitumor agents.

M5076 ovarian sarcoma = assay: lifespan of mice implanted with M5076 ovarian sarcoma; assay type: in vivo
Description: as §1

Lewis carcinoma = assay: lifespan of mice implanted with Lewis carcinoma; assay type: in vivo
Description: as §1

[3] = system: human lung tumor (Lx-1 carcinoma); assay: human lung tumor (Lx-1 carcinoma) xenograft in nude mice; assay type: in vivo
Description: as §1

solid tumors = assay: activity against solid tumors; design: species or system mice; details: mouse, in vivo
Description: as §1

[4] = solubility in aqueous solution; assay type: physicochemical
[5] = stability in aqueous solution; assay type: physicochemical
[6] = Mus musculus, P388, ip, read-out: P388 % ILS (percent increase in life span over controls)

Cc1c[nH]c2c1C13CC1CN(S(C)(=O)=O)C3=CC2=O (stereo not drawn) [U-62,736]
L-1210 (3-Day Cell Growth) ID50 (murine L1210 tumor cells): 39 ng/mL | L-1210 (3-Day Cell Growth) ID90 (murine L1210 tumor cells): 180 ng/mL

CC(=O)N1CC2CC23C1=CC(=O)c1[nH]cc(C)c13 (stereo not drawn) [U-66,664]
IC50 (murine L1210 tumor cells): 4.8 ng/mL (≈ 19.8 nM) | IC90 (murine L1210 tumor cells): 18 ng/mL (≈ 74.3 nM)

CC(=O)N1CC(COS(C)(=O)=O)c2c1cc(O)c1[nH]cc(C)c21 (stereo not drawn) [U-66,665]
IC50 (murine L1210 tumor cells): 9 ng/mL (≈ 26.6 nM) | IC90 (murine L1210 tumor cells): 32 ng/mL (≈ 94.6 nM) | activity against Bacillus subtilis (Bacillus subtilis): have activity against | activity against Klebsiella pneumonia (Klebsiella pneumonia): have activity against | activity against Sarcina lutea (Sarcina lutea): have activity against | activity against Escherichia coli (Escherichia coli): have activity against | activity against Proteus vulgaris (Proteus vulgaris): have activity against | activity against Staphylococcus aureus (Staphylococcus aureus): have activity against | activity against Salmonella schottmeulerri [1]: have activity against | activity against Mycobacterium avium (Mycobacterium avium): have activity against | activity against Saccharomyces pastorianus [2]: have activity against | activity against Penicillium oxalicum (Penicillium oxalicum): have activity against

Cc1c[nH]c2c1C13CC1CN(C(=O)c1cc4ccccc4[nH]1)C3=CC2=O (stereo not drawn) [U-66,694, 1,2,8,8a-tetrahydro-7-methyl-2-(1H-indol-2-ylcarbonyl)cyclopropa[c]pyrrolo(3,2-c]indol-4(5H)-one]
IC50 (murine L1210 tumor cells): 0.15 ng/mL (≈ 0.437 nM) | IC90 (murine L1210 tumor cells): 0.34 ng/mL (≈ 0.99 nM) | ILS at 0.63 mg/kg (P388 leukemia; Mus musculus, P388, ip, at 0.63 mg./kg., read-out: P388 % ILS (percent increase in life span over controls)): 164% | activity against Bacillus subtilis (Bacillus subtilis): have activity against | activity against Klebsiella pneumonia (Klebsiella pneumonia): have activity against | activity against Sarcina lutea (Sarcina lutea): have activity against | activity against Escherichia coli (Escherichia coli): have activity against | activity against Proteus vulgaris (Proteus vulgaris): have activity against | activity against Staphylococcus aureus (Staphylococcus aureus): have activity against | activity against Salmonella schottmeulerri [1]: have activity against | activity against Mycobacterium avium (Mycobacterium avium): have activity against | activity against Saccharomyces pastorianus [2]: have activity against | activity against Penicillium oxalicum (Penicillium oxalicum): have activity against

Cc1c[nH]c2c1C13CC1CNC3=CC2=O (stereo not drawn) [U-66,777]
IC50 (murine L1210 tumor cells): 180 ng/mL (≈ 899 nM) | IC90 (murine L1210 tumor cells): 920 ng/mL (≈ 4590 nM)

Cc1c[nH]c2c1C13CC1CN(C(=O)c1ccccc1)C3=CC2=O (stereo not drawn) [U-66,866, 1,2,8,8a-tetrahydro-7-methyl-2-benzoylcyclopropa[c]pyrrolo[3,2-e]indol-4(5H)-one]
IC50 (murine L1210 tumor cells): 1.5 ng/mL (≈ 4.93 nM) | IC90 (murine L1210 tumor cells): 4.5 ng/mL (≈ 14.8 nM) | ILS at 12 mg/kg (P388 leukemia; Mus musculus, P388, ip, at 12 mg./kg., read-out: P388 % ILS (percent increase in life span over controls)): 71%

COc1c(O)ccc2cc(C(=O)N3CC4CC45C3=CC(=O)c3[nH]cc(C)c35)[nH]c12 (stereo not drawn) [U-67,785, 1,2,8,8a-tetrahydro-7-methyl-2-[(6-hydroxy-7-methoxy-1H-indol-2-yl)carbonyl]cyclopropa[c]pyrrolo[3,2-e]indol-4(5H)-one]
IC50 (murine L1210 tumor cells): 0.072 ng/mL (≈ 0.185 nM) | IC90 (murine L1210 tumor cells): 0.19 ng/mL (≈ 0.488 nM) | ILS at 0.06 mg/kg (P388 leukemia; Mus musculus, P388, ip, at 0.06 mg./kg., read-out: P388 % ILS (percent increase in life span over controls)): 60%

COc1ccc2[nH]c(C(=O)N3CC4CC45C3=CC(=O)c3[nH]cc(C)c35)cc2c1 (stereo not drawn) [U-67,786]
IC50 (murine L1210 tumor cells): 0.046 ng/mL (≈ 0.123 nM) | IC90 (murine L1210 tumor cells): 0.1 ng/mL (≈ 0.268 nM)

Cc1c[nH]c2c1C13CC1CN(C(=O)c1cc4cc(NC(=O)c5cc6ccccc6[nH]5)ccc4[nH]1)C3=CC2=O (stereo not drawn) [U-68,415]
IC50 (murine L1210 tumor cells): 0.018 ng/mL (≈ 0.0359 nM) | IC90 (murine L1210 tumor cells): 0.044 ng/mL (≈ 0.0877 nM) | P388 cures (P388 leukemia; at 0.05 mg./kg.): 4/6

Cc1c[nH]c2c1C13CC1CN(C(=O)c1ccc4ccccc4n1)C3=CC2=O (stereo not drawn) [U-68,749, 1,2,8,8a-tetrahydro-7-methyl-2-(quinolinylcarbonyl)cyclopropa[c]pyrrolo[3,2-e]indol-4(5H)-one]
IC50 (murine L1210 tumor cells): 3.4 ng/mL (≈ 9.57 nM) | IC90 (murine L1210 tumor cells): 8.4 ng/mL (≈ 23.6 nM)

Cc1c[nH]c2c1C13CC1CN(C(=O)c1ccc[nH]1)C3=CC2=O (stereo not drawn) [U-68,819, 1,2,8,8a-tetrahydro-7-methyl-2-(2-pyrrolylcarbonyl)cyclopropa[c]pyrrolo[3,2-e]indol-4(5H)-one]
IC50 (murine L1210 tumor cells): 0.48 ng/mL (≈ 1.64 nM) | IC90 (murine L1210 tumor cells): 1.5 ng/mL (≈ 5.11 nM) | ILS at 1 mg/kg (P388 leukemia; Mus musculus, P388, ip, at 1 mg./kg., read-out: P388 % ILS (percent increase in life span over controls)): 71%

Cc1c[nH]c2c1C13CC1CN(C(=O)c1cc4cc(NC(=O)c5ccccc5)ccc4[nH]1)C3=CC2=O (stereo not drawn) [U-68,846, 1,2,8,8a-tetrahydro-7-methyl-2-[[5-benzoylamino-1H-indol-2-yl]carbonyl]cyclopropa[c]pyrrolo[3,2-e]indol-4(5H)-one]
IC50 (murine L1210 tumor cells): 0.034 ng/mL (≈ 0.0735 nM) | IC90 (murine L1210 tumor cells): 0.096 ng/mL (≈ 0.208 nM) | ILS at 0.05 mg/kg (P388 leukemia; Mus musculus, P388, ip, at 0.05 mg./kg., read-out: P388 % ILS (percent increase in life span over controls)): 82%

Cc1c[nH]c2c1C13CC1CN(C(=O)c1cc4cc(NC(=O)c5cc6cc(NC(=O)c7ccccc7)ccc6[nH]5)ccc4[nH]1)C3=CC2=O (stereo not drawn) [U-68,880]
IC50 (murine L1210 tumor cells): 0.008 ng/mL (≈ 0.0129 nM) | IC90 (murine L1210 tumor cells): 0.019 ng/mL (≈ 0.0306 nM) | ILS at 0.1 mg/kg (P388 leukemia; [6]): 71%

Cc1c[nH]c2c1C13CC1CN(C(=O)c1cc4cc(NC#N)ccc4[nH]1)C3=CC2=O (stereo not drawn) [U-69,058, (1,2,8,8a)-tetrahydro-7-methyl-2-2[[5-cyanoamino-1H-indol-2-yl]carbonyl]cyclopropa[c]pyrrolo[3,2-e]indol-4(5H)-one]
ILS at 0.5 mg/kg (P388 leukemia; Mus musculus, P388, ip, at 0.50 mg./kg., read-out: P388 % ILS (percent increase in life span over controls)): 96%

Cc1c[nH]c2c1C13CC1CN(C(=O)c1cc4cc(NC(N)=O)ccc4[nH]1)C3=CC2=O (stereo not drawn) [U-69,059, 1,2,8,8a-tetrahydro-7-methyl-2-[[5-ureido-1H-indol-2-yl]carbonyl]cyclopropa[c]pyrrolo[3,2-e]indol-4(5H)-one]
P388 cures (P388 leukemia; at 0.5 mg./kg.): 4/6

Cc1c[nH]c2c1C13CC1CN(C(=O)c1cc4cc(NC(=O)c5cc6cc(NC(N)=O)ccc6[nH]5)ccc4[nH]1)C3=CC2=O (stereo not drawn) [U-69,060, 1,2,8,8a-tetrahydro-7-methyl-2-[[5-[[[5-ureido-1H-indol-2-yl]carbonyl]amino]-1H-indol-2-yl]carbonyl]cyclopropa[c]pyrrolo[3,2-a]indol-4(5H)-one]
ILS at 0.1 mg/kg (P388 leukemia; [6]): 138%

Cc1c[nH]c2c1[C@@]13C[C@@H]1CN(C(=O)c1cc4cc(NC(=O)c5cc6ccccc6o5)ccc4[nH]1)C3=CC2=O [U-73,975]
increase in life span over control (non-drug treated) animals (B16 melanoma): 61% | lifespan of mice implanted with M5076 ovarian sarcoma (M5076 ovarian sarcoma): significantly increased the lifespan | lifespan of mice implanted with Lewis carcinoma (Lewis carcinoma): significantly increased the lifespan | growth inhibition of human lung tumor (Lx-1 carcinoma) xenograft [3]: significantly inhibited the growth | activity against solid tumors (solid tumors): particularly good activity against solid tumors | solubility in aqueous solution [4]: good solubility | stability in aqueous solution [5]: good solubility and stability characteristics in aqueous solution | activity against Klebsiella pneumonia (Klebsiella pneumonia): has activity against | activity against Escherichia coli (Escherichia coli): has activity against | activity against Staphylococcus aureus (Staphylococcus aureus): has activity against
